Patent publication US20260257186A1, “Tunable Structure of Biodegradable Silk-Based Microcapsules for Soluble and Insoluble Payload Delivery” (MASSACHUSETTS INSTITUTE OF TECHNOLOGY, priority 2021, published 2026)
Converted amounts (≈) assume the structure as drawn.

How the values were obtained:
[1] = Release of SF/Saf microcapsules, released Saf by UV-Vis; assay type: physicochemical; settings: without silk encapsulation; 10% Pluronic PE 10500 aqueous suspension; FIG. 5C
Description: Release of SF/Saf microcapsules: around 5 mg of different SF/Saf microcapsules were dispersed in 50 mL of 10% Pluronic PE 10500 aqueous suspension, wrapped in Al foil and under 20 rpm mind shaking. After certain time intervals, 0.75 mL of suspension was taken for UV-Vis measurement to determine the concentration of released Saf. The characteristic UV absorption peak position of Saf is around 271 nm.
All release and degradation tests were run in triplicates, and the standard errors for the analytical results were used to generate and present error bars.
The surface morphologies of microcapsules structures were investigated using a Zeiss Merlin High-resolution SEM operating at 0.8 kV for low-, medium- and high-resolution imaging. The elemental analysis was carried out on Zeiss Merlin SEM with energy-dispersive X-ray spectroscopy (EDS). Optical images of SF/DA emulsions were taken with a Nikon Eclipse TE2000-E optical microscope. The concentrations of released VC and Saf were determined by ultraviolet-visible (UV-Vis) spectroscopy on a VWR UV-1600PC spectrophotometer. Chemical structures of SF were studied with Fourier transform infrared (FTIR) spectroscopy from a Perkin Elmer Spectrum 65 spectrometer with the attenuated total reflection (ATR) accessory. […] The data was analyzed on volume-based distribution.

[2] = cited from earlier work

## CC(C)N(C)S(=O)(=O)NC(=O)c1cc(-n2c(=O)cc(C(F)(F)F)n(C)c2=O)c(F)cc1Cl [Saf, Saflufenacil]
[1]
  burst release of Saf: ~25%
[2]; organic solvents
  solubility in organic solvents: limited
[2]; solid powder
  thermal decomposition T: around 236 °C
[2]; water
  solubility in water: 2 g/L (≈ 3.99 mM)
